Data reported in paper PMC4741190, “Crystal structure of the flavoenzyme PA4991 from Pseudomonas aeruginosa” (Acta Crystallographica. Section F, Structural Biology …, 2016).

Biological target: T1, PA4991 (Pseudomonas aeruginosa, UniProt Q9HUH4)
T1 construct: N-terminal His6 tag cut with TEV protease; expressed in E. coli BL21(DE3)
T1 sequence (Q9HUH4 1-391): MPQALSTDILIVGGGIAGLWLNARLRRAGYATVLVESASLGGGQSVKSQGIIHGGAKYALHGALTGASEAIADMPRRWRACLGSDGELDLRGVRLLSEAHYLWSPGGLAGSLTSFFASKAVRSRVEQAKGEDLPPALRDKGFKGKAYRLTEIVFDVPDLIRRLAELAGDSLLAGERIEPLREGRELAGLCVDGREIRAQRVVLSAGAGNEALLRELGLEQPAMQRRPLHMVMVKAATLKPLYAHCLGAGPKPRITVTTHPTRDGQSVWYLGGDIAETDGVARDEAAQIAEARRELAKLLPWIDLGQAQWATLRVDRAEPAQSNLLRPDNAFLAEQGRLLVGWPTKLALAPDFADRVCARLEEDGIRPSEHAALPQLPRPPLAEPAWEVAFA
Test: X-ray crystal structure, […] A; UV-visible spectrum
Type: binding
Details: noncovalent; co-purified cofactor, extended conformation; crystals pH 8.5, soaked in 1 mM phenylmercuric chloride

Cc1cc2nc3c(=O)[nH]c(=O)nc-3n(C[C@H](O)[C@H](O)[C@H](O)COP(=O)(O)OP(=O)(O)OC[C@H]3O[C@@H](n4cnc5c(N)ncnc54)[C@H](O)[C@@H]3O)c2cc1C [FAD]
X-ray crystal structure, 2.40 A; UV-visible spectrum: FAD is bound noncovalently to PA4991 in an extended conformation
